Assays:
deadnettle [1] = assay: Test E deadnettle; type: in vivo, Lamium amplexicaule; settings: Postemergence
Procedure: (§1) Compounds evaluated in this test were formulated in a non-phytotoxic solvent mixture which included a surfactant and applied to plants that were in the 1- to 4-leaf stage (postemergence application). A mixture of sandy loam soil and greenhouse potting mix in a 60:40 ratio was used for the postemergence test.
(§2) Plantings of these crops and weed species were adjusted to produce plants of appropriate size for the postemergence test. All plant species were grown using normal greenhouse practices. Crop and weed species include annual bluegrass (Poa annua), blackgrass (Alopecurus myosuroides), black nightshade (Solanum nigra), chickweed (Stellaria media), common poppy (Papaver rhoeas), deadnettle (Lamium amplexicaule), downy brome (Bromus tectorum), field violet (Viola arvensis), galium (Galium aparine), green foxtail (Setaria viridis), Italian ryegrass (Lolium multiflorum), jointed goatgrass (Aegilops cylindrica), kochia (Kochia scoparia), lambsquarters (Chenopodium album), littleseed canarygrass (Phalaris minor), rape (Brassica napus), redroot pigweed (Amaranthus retroflexus), Russian thistle (Salsola kali), scentless chamomile (Matricaria inodora), spring barley (Hordeum vulgare), sugar beet (Beta vulgaris), sunflower (Helianthus annuus), ivyleaf speedwell (Veronica hederaefolia), spring wheat (Triticum aestivum), winter wheat (Triticum aestivum), wild buckwheat (Polygonum convolvulus), wild mustard (Sinapis arvensis), wild oat (Avena fatua), windgrass (Apera spica-venti) and winter barley (Hordeum vulgare).
(§3) Treated plants and untreated controls were maintained in a greenhouse for approximately 21 to 28 days, after which all treated plants were compared to untreated controls and visually evaluated. […] A dash response (-) means no test result.

field violet = assay: Test E field violet; type: in vivo, Viola arvensis; settings: Preemergence
galium [2] = assay: Test E galium; type: in vivo, Galium aparine; settings: Preemergence
annual bluegrass [3] = assay: Test E annual bluegrass; type: in vivo, Poa annua; settings: Preemergence
green foxtail = assay: Test E green foxtail; type: in vivo, Setaria viridis; settings: Postemergence
Procedure: as §1, §2, §3

deadnettle [4] = assay: Test E deadnettle; type: in vivo, Lamium amplexicaule; settings: Preemergence
annual bluegrass [5] = assay: Test E annual bluegrass; type: in vivo, Poa annua; settings: Postemergence
Procedure: as §1, §2, §3

sugar beet [6] = assay: Test E sugar beet; type: in vivo, Beta vulgaris; settings: Preemergence
black nightshade = assay: Test E black nightshade; type: in vivo, Solanum nigra; settings: Preemergence
jointed goatgrass = assay: Test E jointed goatgrass; type: in vivo, Aegilops cylindrica; settings: Preemergence
redroot pigweed = assay: Test E redroot pigweed; type: in vivo, Amaranthus retroflexus; settings: Preemergence
windgrass = assay: Test E windgrass; type: in vivo, Apera spica-venti; settings: Preemergence
sunflower = assay: Test E sunflower; type: in vivo, Helianthus annuus; settings: Postemergence
How it was run: (§4)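 Compound formulated with surfactant in a non-phytotoxic solvent (postemergence: young 1- to 4-leaf plants); held in greenhouse approx. 21–28 days; visual assessment against untreated plants.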

blackgrass = assay: Test E blackgrass; type: in vivo, Alopecurus myosuroides; settings: Postemergence
How it was run: as §4

lambsquarters [7] = assay: Test E lambsquarters; type: in vivo, Chenopodium album; settings: Preemergence
sugar beet [8] = assay: Test E sugar beet; type: in vivo, Beta vulgaris; settings: Postemergence
How it was run: as §4

downy brome = assay: Test E downy brome; type: in vivo, Bromus tectorum; settings: Postemergence; for Plant response rating, Downy brome: 0 to 100 scale
Procedure: as §1, §2, §3

rape [9] = assay: Test E rape; type: in vivo, Brassica napus; settings: Preemergence
galium [10] = assay: Test E galium; type: in vivo, Galium aparine; settings: Postemergence
Procedure: (§5) […] A mixture of sandy loam soil and greenhouse potting mix in a 60:40 ratio was used for the postemergence test.
as §2, §3

wild buckwheat = assay: Test E wild buckwheat; type: in vivo, Polygonum convolvulus; settings: Preemergence
lambsquarters [11] = assay: Test E lambsquarters; type: in vivo, Chenopodium album; settings: Postemergence
How it was run: as §4

rape [12] = assay: Test E rape; type: in vivo, Brassica napus; settings: Postemergence
Procedure: as §5, §2, §3

wild oat = assay: Test E wild oat; type: in vivo, Avena fatua; settings: Postemergence
How it was run: as §4

Russian thistle = assay: Test E Russian thistle; type: in vivo, Salsola kali; settings: Postemergence
Procedure: as §5, §2, §3

winter barley = assay: Test E winter barley; type: in vivo, Hordeum vulgare; settings: Postemergence
How it was run: as §4

littleseed canarygrass = assay: Test E littleseed canarygrass; type: in vivo, Phalaris minor; settings: Postemergence
How it was run: as §4

[13] = Rate 250 g/ha, 0 to 100 scale (0 no effect, 100 complete control)
[14] = Rate 62 g/ha, 0 to 100 scale, 0 no effect, 100 complete control
[15] = Rate 125 g/ha, 0 to 100 scale (0 no effect, 100 complete control)

For `CCn1c(=O)on(C(=O)N(c2ccc(Cl)cc2)C(C)C)c1=O` [Compound 108], the “Plant response rating, Deadnettle” value (deadnettle [1]; Rate 62 g/ha, 0 to 100 scale) was 10, the “Plant response rating, Deadnettle” value (deadnettle [1]; Rate 125 g/ha, 0 to 100 scale) was 20 and the “Plant response rating, Deadnettle” value (deadnettle [1]; [13]) was 30. The “Plant response rating, Field violet” value (field violet; [14]) was 15, the “Plant response rating, Field violet” value (field violet; [15]) was 0 and the “Plant response rating, Field violet” value (field violet; Rate 250 g/ha, 0 to 100 scale) was 20. The “Plant response rating, Galium” value (galium [2]; [14]) was 95, the “Plant response rating, Galium” value (galium [2]; [15]) was 50 and the “Plant response rating, Galium” value (galium [2]; Rate 250 g/ha, 0 to 100 scale) was 95. The “Plant response rating, Annual bluegras” value (annual bluegrass [3]; [14]) was 20, the “Plant response rating, Annual bluegras” value (annual bluegrass [3]; [15]) was 60 and the “Plant response rating, Annual bluegras” value (annual bluegrass [3]; Rate 250 g/ha, 0 to 100 scale) was 60. For the same compound, the “Plant response rating, Green foxtail” value (green foxtail; Rate 62 g/ha, 0 to 100 scale) was 10, the “Plant response rating, Green foxtail” value (green foxtail; Rate 125 g/ha, 0 to 100 scale) was 15 and the “Plant response rating, Green foxtail” value (green foxtail; [13]) was 75. For the same compound, the “Plant response rating, Deadnettle” value (deadnettle [4]; [14]) was 10, the “Plant response rating, Deadnettle” value (deadnettle [4]; [15]) was 10 and the “Plant response rating, Deadnettle” value (deadnettle [4]; Rate 250 g/ha, 0 to 100 scale) was 40. The “Plant response rating, Annual bluegras” value (annual bluegrass [5]; Rate 62 g/ha, 0 to 100 scale) was 0, the “Plant response rating, Annual bluegras” value (annual bluegrass [5]; Rate 125 g/ha, 0 to 100 scale) was 15 and the “Plant response rating, Annual bluegras” value (annual bluegrass [5]; [13]) was 50. The “Plant response rating, Sugar beet” value (sugar beet [6]; [14]) was 60, the “Plant response rating, Sugar beet” value (sugar beet [6]; [15]) was 40 and the “Plant response rating, Sugar beet” value (sugar beet [6]; Rate 250 g/ha, 0 to 100 scale) was 60. The “Plant response rating, Blk nightshade” value (black nightshade; [14]) was 50, the “Plant response rating, Blk nightshade” value (black nightshade; [15]) was 85 and the “Plant response rating, Blk nightshade” value (black nightshade; Rate 250 g/ha, 0 to 100 scale) was 90. The “Plant response rating, Jointed goatgra” value (jointed goatgrass; [14]) was 30, the “Plant response rating, Jointed goatgra” value (jointed goatgrass; [15]) was 40 and the “Plant response rating, Jointed goatgra” value (jointed goatgrass; Rate 250 g/ha, 0 to 100 scale) was 60. For the same compound, the “Plant response rating, Redroot pigweed” value (redroot pigweed; [14]) was 70, the “Plant response rating, Redroot pigweed” value (redroot pigweed; [15]) was 90 and the “Plant response rating, Redroot pigweed” value (redroot pigweed; Rate 250 g/ha, 0 to 100 scale) was 90. For the same compound, the “Plant response rating, Windgrass” value (windgrass; [14]) was 100, the “Plant response rating, Windgrass” value (windgrass; [15]) was 100 and the “Plant response rating, Sunflower” value (sunflower; Rate 62 g/ha, 0 to 100 scale) was 20. For the same compound, the “Plant response rating, Sunflower” value (sunflower; Rate 125 g/ha, 0 to 100 scale) was 30, the “Plant response rating, Sunflower” value (sunflower; [13]) was 35 and the “Plant response rating, Blackgrass” value (blackgrass; Rate 62 g/ha, 0 to 100 scale) was 5. The “Plant response rating, Blackgrass” value (blackgrass; Rate 125 g/ha, 0 to 100 scale) was 5, the “Plant response rating, Blackgrass” value (blackgrass; [13]) was 10 and the “Plant response rating, Lambsquarters” value (lambsquarters [7]; [14]) was 80. For the same compound, the “Plant response rating, Lambsquarters” value (lambsquarters [7]; [15]) was 100, the “Plant response rating, Lambsquarters” value (lambsquarters [7]; Rate 250 g/ha, 0 to 100 scale) was 90 and the “Plant response rating, Sugar beet” value (sugar beet [8]; Rate 62 g/ha, 0 to 100 scale) was 5. The “Plant response rating, Sugar beet” value (sugar beet [8]; Rate 125 g/ha, 0 to 100 scale) was 10, the “Plant response rating, Sugar beet” value (sugar beet [8]; [13]) was 20 and the “Plant response rating, Downy brome” value (downy brome; Rate 62 g/ha) was 0. For the same compound, the “Plant response rating, Downy brome” value (downy brome; Rate 125 g/ha) was 0, the “Plant response rating, Downy brortie” value (downy brome; [13]) was 0 and the “Plant response rating, Rape” value (rape [9]; [14]) was 40. For the same compound, the “Plant response rating, Rape” value (rape [9]; [15]) was 60, the “Plant response rating, Rape” value (rape [9]; Rate 250 g/ha, 0 to 100 scale) was 50 and the “Plant response rating, Galium” value (galium [10]; Rate 62 g/ha, 0 to 100 scale) was 0. The “Plant response rating, Galium” value (galium [10]; Rate 125 g/ha, 0 to 100 scale) was 10, the “Plant response rating, Galium” value (galium [10]; [13]) was 50 and the “Plant response rating, Wild buckwheat” value (wild buckwheat; [14]) was 60. For the same compound, the “Plant response rating, Wild buckwheat” value (wild buckwheat; [15]) was 100, the “Plant response rating, Wild buckwheat” value (wild buckwheat; Rate 250 g/ha, 0 to 100 scale) was 80 and the “Plant response rating, Lambsquarters” value (lambsquarters [11]; Rate 62 g/ha, 0 to 100 scale) was 10. The “Plant response rating, Lambsquarters” value (lambsquarters [11]; Rate 125 g/ha, 0 to 100 scale) was 20, the “Plant response rating, Lambsquarters” value (lambsquarters [11]; [13]) was 20 and the “Plant response rating, Rape” value (rape [12]; Rate 62 g/ha, 0 to 100 scale) was 60. The “Plant response rating, Rape” value (rape [12]; Rate 125 g/ha, 0 to 100 scale) was 40, the “Plant response rating, Rape” value (rape [12]; [13]) was 50 and the “Plant response rating, Wild oat” value (wild oat; Rate 62 g/ha, 0 to 100 scale) was 0. The “Plant response rating, Wild oat” value (wild oat; Rate 125 g/ha, 0 to 100 scale) was 5, the “Plant response rating, Wild oat” value (wild oat; [13]) was 20 and the “Plant response rating, Russian thistle” value (Russian thistle; Rate 62 g/ha, 0 to 100 scale) was 0. The “Plant response rating, Russian thistle” value (Russian thistle; Rate 125 g/ha, 0 to 100 scale) was 0, the “Plant response rating, Russian thistle” value (Russian thistle; [13]) was 0 and the “Plant response rating, Barley (winter)” value (winter barley; Rate 62 g/ha, 0 to 100 scale) was 10. The “Plant response rating, Barley (winter)” value (winter barley; Rate 125 g/ha, 0 to 100 scale) was 10, the “Plant response rating, Barley (winter)” value (winter barley; [13]) was 15 and the “Plant response rating, LS canarygrass” value (littleseed canarygrass; Rate 62 g/ha, 0 to 100 scale) was 0. For the same compound, the “Plant response rating, LS canarygrass” value (littleseed canarygrass; Rate 125 g/ha, 0 to 100 scale) was 20 and the “Plant response rating, LS canarygrass” value (littleseed canarygrass; [13]) was 70.

Reference: patent US6737383B1, “Herbicidal oxadiazolidines” (priority 1999, dated 2004)
